US6193985A, “Tocopherol compositions for delivery of biologically active agents” (priority 1994, dated 2001)
Like-named read-outs stand apart in the source and are kept apart here.

Experiments:
[1] = Description: For the following, non-limiting, sparingly soluble drugs in water, the solubility in α-tocopherol and sesame oil are listed in Table 1:
Sesame oil was chosen as the reference, because it is a very commonly used and well tolerated vegetable oil. The solubilities in sesame oil and α-tocopherol were investigated by visual inspection of the saturation point.

[2] = cited from earlier work
[3] = cited from earlier work; remark: listed apart in the source
[4] = solubility in sesame oil (reference)

SMILES: Clc1ccc(COC(Cn2ccnc2)c2ccc(Cl)cc2Cl)c(Cl)c1 (stereo not shown) [Miconazole, miconazole]
- g drug in 100 g of α-tocopherol ([1]; solubility in α-tocopherol): 60 g drug in 100 g

SMILES: CCCC1O[C@@H]2C[C@H]3[C@@H]4CCC5=CC(=O)C=C[C@]5(C)[C@H]4[C@@H](O)C[C@]3(C)[C@]2(C(=O)CO)O1 (stereo partly shown) [Budesonide, budesonide]
- g drug in 100 g of sesame oil [1, 4]: < 0.1 g drug in 100 g

SMILES: CC(=O)[C@H]1CC[C@H]2[C@@H]3CCC4=CC(=O)CC[C@]4(C)[C@H]3CC[C@]12C [Progesterone]
- g drug in 100 g of α-tocopherol ([1]; solubility in α-tocopherol): > 30 g drug in 100 g

SMILES: Cc1ncc([N+](=O)[O-])n1CCOC(=O)c1ccccc1 [Metronidazole benzoate]
- g drug in 100 g of sesame oil [1, 4]: < 2 g drug in 100 g

SMILES: CCN(CC)C(=S)SSC(=S)N(CC)CC [Disulfiram, disulfiram]
- g drug in 100 g of α-tocopherol ([1]; solubility in α-tocopherol): 5 g drug in 100 g

SMILES: C(=C\c1ccccc1)/CN1CCN(C(c2ccccc2)c2ccccc2)CC1 [Cinnarizine, cinnarizine]
- solubility in water (in words) [2]: very low water solubility
- g drug in 100 g of sesame oil [1]: 2-4 g drug in 100 g
- g drug in 100 g of α-tocopherol [1]: 11-18 g drug in 100 g
- oral bioavailability ([3]; if dissolved in a vehicle before administration): higher oral bioavailability

SMILES: Cc1ncc2n1-c1ccc(Cl)cc1C(c1ccccc1F)=NC2 [Midazolam, midazolam]
- g drug in 100 g of α-tocopherol ([1]; solubility in α-tocopherol): > 13 g drug in 100 g
- first-pass effect ([3]; after oral administration): very high first-pass effect

SMILES: CCN(CC)CCNC(=O)c1cc(Cl)c(N)cc1OC [Metoclopramide]
- g drug in 100 g of sesame oil [1]: < 2 g drug in 100 g
- g drug in 100 g of α-tocopherol [1]: 2-4 g drug in 100 g
